Assay results: patent publication US7829665B2 (priority 2005, dated 2010)
Where two headings read alike, the source gives them in different places.

Target: T1, full-length NS3/NS4A-2 (HCV NS3 protease) (Hepatitis C virus genotype 1a, UniProt P27958)
T1 construct: Recombinant E. coli or Baculovirus full-length NS3 was diluted to 3.33 μM with assay buffer; made in house; host or cells: E. coli or baculovirus (BV) expression system
Experiment: NS3-NS4 protease assay / NS3 inhibition assay (RETS1 substrate, fluorescence kinetic read)
Format: biochemical
How it was run: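 Full-length NS3 from E. coli (2 nM in assay) or baculovirus (3 nM) was precomplexed with excess NS4A-2 peptide, then preincubated 10 min at room temperature with serially diluted compounds starting at 50 microM. Reaction was started with RETS1 substrate at 8 μM before addition and read kinetically for 30 min (ex 335/em 495 nm). Four-parameter IC50s were converted to Ki by Cheng-Prusoff using Km 2.03 μM (E. coli) or 1.74 μM (BV).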

[1] = recombinant E. coli or Baculovirus full-length NS3 with NS4A-2, read-out: NS3-NS4 IC50
[2] = Table 22, read-out: NS3-NS4 IC50

T1 sequence (P27958 1027-1657): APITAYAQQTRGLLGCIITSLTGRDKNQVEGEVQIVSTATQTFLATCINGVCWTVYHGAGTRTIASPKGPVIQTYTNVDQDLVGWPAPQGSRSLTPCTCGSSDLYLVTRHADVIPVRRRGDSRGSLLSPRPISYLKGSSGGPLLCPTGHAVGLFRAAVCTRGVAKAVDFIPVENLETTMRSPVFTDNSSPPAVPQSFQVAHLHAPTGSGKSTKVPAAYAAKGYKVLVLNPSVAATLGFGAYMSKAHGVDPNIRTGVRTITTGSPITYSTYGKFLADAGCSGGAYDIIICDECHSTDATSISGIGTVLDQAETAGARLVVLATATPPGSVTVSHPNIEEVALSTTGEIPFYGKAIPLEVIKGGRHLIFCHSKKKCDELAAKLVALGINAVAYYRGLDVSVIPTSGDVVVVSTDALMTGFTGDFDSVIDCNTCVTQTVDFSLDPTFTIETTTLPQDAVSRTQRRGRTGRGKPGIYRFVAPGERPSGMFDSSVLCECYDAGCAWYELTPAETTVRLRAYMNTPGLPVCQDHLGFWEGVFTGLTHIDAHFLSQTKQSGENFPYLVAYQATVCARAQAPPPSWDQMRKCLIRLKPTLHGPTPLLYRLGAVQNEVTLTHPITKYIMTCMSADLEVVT

CC(C)(C)OC(=O)N[C@H]1CCN(S(=O)(=O)c2ccccc2[N+](=O)[O-])CC/C=C\[C@@H]2C[C@@]2(C(=O)NS(=O)(=O)C2CC2)NC(=O)[C@@H]2C[C@@H](OC(=O)N3Cc4cccc(F)c4C3)CN2C1=O [Compound 1030, (2R,6S,13aS,14aR,16aS,Z)-6-(tert-butoxycarbonylamino)-14a-(cyclopropylsulfonylcarbamoyl)-9-(2-nitrophenylsulfonyl)-5,16-dioxo-1,2,3,5,6,7,8,9,10,11,13a,14,14a,15,16,16a-hexadecahydrocyclopropa(n)pyrrolo[2,1-c][1,4,9]triazacyclopentadecine-2-yl 4-fluoroisoindoline-2-carboxylate]
IC50 [1]: < 0.1 µM

CC(C)C[C@@H]1C[C@H]2C(=O)N[C@]3(C(=O)NS(=O)(=O)C4CC4)C[C@H]3/C=C\CCCCC[C@H](NC(=O)OC(C)(C)C)C(=O)N2C1 [Compound 2147, (1S,4R,6S,14S,18R)-tert-Butyl 4-cyclopropylsulfonylaminocarbonyl-2,15-dioxo-3,16-diaza-18-(2-methylpropyl)-tricyclo[14.3.0.0^4,6]nonadec-7-ene-14-yl carbamate]
IC50 [1]: > 10 µM

CC(C)(C)OC(=O)N[C@H]1CCCCC/C=C\[C@@H]2C[C@@]2(C(=O)Nc2cccc(Cl)c2)NC(=O)[C@@H]2CCCN2C1=O [Compound 2317]
IC50 [2]: < 1 µM

C[C@@H](NC(=O)O[C@@H]1C[C@H]2C(=O)N[C@]3(C(=O)O)C[C@H]3/C=C\CCCCC[C@H](NC(=O)OC(C)(C)C)C(=O)N2C1)c1ccc(F)cn1 [Compound 148]
IC50 [1]: > 10 µM

CN(c1ccc(F)cc1)S(=O)(=O)NC(=O)[C@@]12C[C@H]1/C=C\CCCCC[C@H](NC(=O)OC(C)(C)C)C(=O)N1CCC[C@H]1C(=O)N2 [Compound 2229]
IC50 [1]: < 10 µM

CC(C)(C)OC(=O)N[C@H]1CCCCC/C=C\[C@@H]2C[C@@]2(C(=O)NS(=O)(=O)c2cccc(C#N)c2)NC(=O)[C@@H]2CCCN2C1=O [Compound 2152]
IC50 [1]: < 10 µM

CC(C)(C)OC(=O)N[C@H]1CCCCC/C=C\[C@@H]2C[C@@]2(C(=O)NS(=O)(=O)NCCc2ccccc2Cl)NC(=O)[C@@H]2CCCN2C1=O [Compound 402]
IC50 [1]: > 10 µM

CCN(C)S(=O)(=O)NC(=O)[C@@]12C[C@H]1/C=C\CCCCC[C@H](NC(=O)OC(C)(C)C)C(=O)N1CCC[C@H]1C(=O)N2 [Compound 400]
IC50 [1]: < 10 µM

CCOC(=O)[C@@]12C[C@H]1/C=C\CCCCC[C@H](NC(=O)OC(C)(C)C)C(=O)N1C[C@H](OC(=O)N3Cc4ccc(OCCN5CCOCC5)cc4C3)C[C@H]1C(=O)N2 [Compound 124]
IC50 [1]: < 10 µM

CC(C)(C)OC(=O)N[C@H]1CCCCC/C=C\[C@@H]2C[C@@]2(C(=O)NS(=O)(=O)c2ccccc2F)NC(=O)[C@@H]2CCCN2C1=O [Compound 2124]
IC50 [1]: < 10 µM

CC(C)(C)OC(=O)N[C@H]1CCCCC/C=C\[C@@H]2C[C@@]2(C(=O)NS(=O)(=O)Cc2cccc(Cl)c2)NC(=O)[C@@H]2CCCN2C1=O [Compound 2118]
IC50 [1]: < 1 µM

CC(C)(C)OC(=O)N[C@H]1CCCCC/C=C\[C@@H]2C[C@@]2(C(=O)O)NC(=O)C2Cc3ccccc3CN2C1=O (stereo partly drawn) [Compound 2001, (1aS,9S,19aR,Z)-9-(tert-Butoxycarbonyl)-10,18-dioxo-1a,4,5,6,7,8,9,10,12,17,17a,18,19,19a-tetradecahydro-1H-11,14-diaza-bicyclo[13.1.0]hexadeca-1(15), 2-dieno[11,12-b]isoquinoline-19a-carboxylic acid]
IC50 [1]: > 10 µM

CCOC(=O)[C@@]12C[C@H]1/C=C\CCCCC[C@H](NC(=O)OC1CCCC1)C(=O)N1C[C@H](OC(=O)N3Cc4ccc(OCCN5CCOCC5)cc4C3)C[C@H]1C(=O)N2 [Compound 129]
IC50 [1]: < 10 µM

COC[C@@H]1CCCN1S(=O)(=O)NC(=O)[C@@]12C[C@H]1/C=C\CCCCC[C@H](NC(=O)OC(C)(C)C)C(=O)N1CCC[C@H]1C(=O)N2 [Compound 2252]
IC50 [1]: < 1 µM

CC(C)(C)OC(=O)N[C@H]1CCCCC/C=C\[C@@H]2C[C@@]2(C(=O)NS(=O)(=O)N2CCCC2)NC(=O)[C@@H]2CCCN2C1=O [Compound 2207]
IC50 [1]: < 10 µM

CC(C)(C)OC(=O)N[C@H]1CCCCC/C=C\[C@@H]2C[C@@]2(C(=O)NS(N)(=O)=O)NC(=O)[C@@H]2CCCN2C1=O [Compound 2203]
IC50 [1]: < 1 µM

CC(C)(C)OC(=O)N[C@H]1CCCCC/C=C\[C@@H]2C[C@@]2(C(=O)NCCc2ccccc2)NC(=O)[C@@H]2CCCN2C1=O [Compound 2320]
IC50 [2]: < 0.1 µM

COc1ccc(S(=O)(=O)NC(=O)[C@@]23C[C@H]2/C=C\CCCCC[C@H](NC(=O)OC(C)(C)C)C(=O)N2CCC[C@H]2C(=O)N3)cc1 [Compound 2133]
IC50 [1]: < 10 µM

CC(C)(C)OC(=O)N[C@H]1CCCCC/C=C\[C@@H]2C[C@@]2(C(=O)NS(=O)(=O)C2CC2)NC(=O)C2Cc3ccccc3CN2C1=O (stereo partly drawn) [Compound 2009, tert-Butyl (1aS,9S,19aR,Z)-19a-(cyclopropylsulfonylcarbamoyl)-10,18-dioxo-1a,4,5,6,7,8,9,10,12,17,17a,18,19,19a-tetradecahydro-1H-11,14-diaza-bicyclo[13.1.0]hexadeca-1(15),2-dieno[11,12-b]isoquinolin-9-ylcarbamate]
IC50 [1]: < 10 µM

CCOC(=O)[C@@]12C[C@H]1/C=C\CCCCC[C@H](N)C(=O)N1C[C@H](OC(=O)N3Cc4ccc(OCCNC(C)C)cc4C3)C[C@H]1C(=O)N2 [Compound 128]
IC50 [1]: > 10 µM

COC(=O)c1cccc(CNC(=O)[C@@]23C[C@H]2/C=C\CCCCC[C@H](NC(=O)OC(C)(C)C)C(=O)N2CCC[C@H]2C(=O)N3)c1 [Compound 2321]
IC50 [2]: < 1 µM

CN(C)c1ccc(NS(=O)(=O)NC(=O)[C@@]23C[C@H]2/C=C\CCCCC[C@H](NC(=O)OC(C)(C)C)C(=O)N2CCC[C@H]2C(=O)N3)cc1 [Compound 2231]
IC50 [1]: < 10 µM

CC(C)(C)OC(=O)N[C@H]1CCCCC/C=C\[C@@H]2C[C@@]2(C(=O)NS(=O)(=O)N2Cc3ccccc3C2)NC(=O)[C@@H]2CCCN2C1=O [Compound 409]
IC50 [1]: < 10 µM

CC(C)N(C)S(=O)(=O)NC(=O)[C@@]12C[C@H]1/C=C\CCCCC[C@H](NC(=O)OC(C)(C)C)C(=O)N1CCC[C@H]1C(=O)N2 [Compound 401]
IC50 [1]: < 10 µM

CN(C)c1ccc(S(=O)(=O)NC(=O)[C@@]23C[C@H]2/C=C\CCCCC[C@H](NC(=O)OC2CCCC2)C(=O)N2C[C@H](OC(=O)N4CCc5ccccc5C4)C[C@H]2C(=O)N3)cc1 [Compound 183]
IC50 [1]: < 0.1 µM

CC(C)(C)OC(=O)N[C@H]1CCCCC/C=C\[C@@H]2C[C@@]2(C(=O)O)NC(=O)[C@@H]2C[C@@H](OC(=O)NCc3ccc(F)cn3)CN2C1=O [Compound 151]
IC50 [1]: < 10 µM

CC(C)(C)OC(=O)N[C@H]1CCCCC/C=C\[C@@H]2C[C@@]2(C(=O)NS(=O)(=O)Cc2ccccc2Cl)NC(=O)[C@@H]2CCCN2C1=O [Compound 2117]
IC50 [1]: < 1 µM

CCOC(=O)[C@@]12C[C@H]1/C=C\CCCCC[C@H](NC(=O)OC(C)(C)C)C(=O)N1C[C@H](OC(=O)N3Cc4ccc(OCCN(C)C)cc4C3)C[C@H]1C(=O)N2 [Compound 127]
IC50 [1]: < 10 µM

Cc1noc(C)c1S(=O)(=O)NC(=O)[C@@]12C[C@H]1/C=C\CCCCC[C@H](NC(=O)OC1CCCC1)C(=O)N1C[C@H](OC(=O)N3CCc4ccccc4C3)C[C@H]1C(=O)N2 [Compound 187]
IC50 [1]: < 0.1 µM

CC(C)(C)OC(=O)N[C@H]1COCCC/C=C\[C@@H]2C[C@@]2(C(=O)NS(=O)(=O)C2CC2)NC(=O)[C@@H]2C[C@@H](OC(=O)N3Cc4cccc(Cl)c4C3)CN2C1=O [Compound 1025]
IC50: < 0.1 µM

CC(C)(C)OC(=O)N[C@H]1CCCCC/C=C\[C@@H]2C[C@@]2(C(=O)NS(=O)(=O)NCCc2ccccn2)NC(=O)[C@@H]2CCCN2C1=O [Compound 423]
IC50 [1]: < 10 µM

CC(C)CNC(=O)[C@@]12C[C@H]1/C=C\CCCCC[C@H](NC(=O)OC(C)(C)C)C(=O)N1CCC[C@H]1C(=O)N2 [Compound 2314]
IC50 [2]: < 1 µM

CC(C)(C)OC(=O)N[C@H]1CCCCC/C=C\[C@@H]2C[C@@]2(C(=O)NCc2ccccn2)NC(=O)[C@@H]2CCCN2C1=O [Compound 500]
IC50 [1]: > 10 µM

CCCS(=O)(=O)NC(=O)C12CC1C=CCCCCCCCC(NC(=O)OC(C)(C)C)C(=O)N1CCCC1C(=O)N2 (stereo not drawn) [Compound 2105]
IC50 [1]: < 1 µM

CCCNC(=O)[C@@]12C[C@H]1/C=C\CCCCC[C@H](NC1CCC1)C(=O)N1C[C@H](OC(=O)N3Cc4cccc(F)c4C3)C[C@H]1C(=O)N2 [Compound 623]
IC50 [1]: < 10 µM

CN1CCN(S(=O)(=O)NC(=O)[C@@]23C[C@H]2/C=C\CCCCC[C@H](NC(=O)OC(C)(C)C)C(=O)N2CCC[C@H]2C(=O)N3)CC1 [Compound 2208]
IC50 [1]: < 1 µM

CC(C)(C)OC(=O)N[C@H]1CCCCC/C=C\[C@@H]2C[C@@]2(C(=O)NS(=O)(=O)NCCc2cccc(Cl)c2)NC(=O)[C@@H]2CCCN2C1=O [Compound 411]
IC50 [1]: > 10 µM

O=C(N[C@H]1CCC(F)(F)CC/C=C\[C@@H]2C[C@@]2(C(=O)NS(=O)(=O)C2CC2)NC(=O)[C@@H]2C[C@@H](OC(=O)N3Cc4cccc(F)c4C3)CN2C1=O)OC1CCCC1 [Compound 1005]
IC50 [1]: < 0.1 µM

O=C(N[C@H]1CCCCC/C=C\[C@@H]2C[C@@]2(C(=O)NS(=O)(=O)c2ccccc2)NC(=O)C2Cc3cc(Oc4cccc(Cl)c4)ccc3CN2C1=O)OC1CCCC1 (stereo partly drawn) [Compound 2004, Cyclopentyl (1aS,9S,19aR,Z)-15-(3-chlorophenoxy)-10,18-dioxo-19a-(phenylsulfonylcarbamoyl)-1a,4,5,6,7,8,9,10,12,17,17a,18,19,19a-tetradecahydro-1H-11,14-diaza-bicyclo[13.1.0]hexadeca-1(15), 2-dieno[11,12-b]isoquinolin-9-ylcarbamate]
IC50 [1]: < 1 µM
